Laboratory results as given in publication PMC539285, “Anti-Plasmodium activity of ceramide analogs” (Malaria Journal, 2004).

Key:
[1] = tested on: tubovesicular network of P. falciparum; test: Tubovesicular network formation, BODIPY-FL-C5-ceramide fluorescence microscopy; assay type: cell-based, Plasmodium falciparum
Method: Infected erythrocytes treated with or without ceramide analogs were incubated for 30 min, at 37°C, in culture medium containing 10 μM BODIPY-FL-C5-ceramide, washed three times with culture medium without serum and fixed overnight, at 4°C, in 3.7% formaldehyde/0.05% glutaraldehyde. Cells were mounted on poly-L-lysine coated slides and viewed using a Nikon Eclipse TE 300 DV inverted microscope with an 100X oil objective mounted on a piezzo electric device using appropriate fluorescence emission filters. Image acquisition (z-series) was performed with a back illuminated cooled detector (CCD EEV: NTE/CCD-1024-EB, Roper Scientific, France) using a 0.2 μm step. Data acquisition and image deconvolution process were performed with Metamorph software (Universal Imaging Corporation, Roper Scientific, France). The images presented correspond to the maximum intensity projection of the deconvoluted z-series.

[2] = tested on: P. falciparum; parameters: method as in PMID 7568097; settings: synchronized cultures at the ring stage; read-out: IC50 previously reported; cited from earlier work
[3] = tested on: P. falciparum synchronized cultures; test: Parasite stage-specific inhibitory effects and reversibility (Giemsa-stained smears); assay type: cell-based, Plasmodium falciparum; settings: rings, 24 hours incubation with 5 μM, then drug removal (data not shown)
[4] = tested on: malaria-induced anion channel; test: Malaria-induced anion channel activity, whole-cell patch-clamp; assay type: cell-based, Plasmodium falciparum; settings: infected erythrocytes, 24 hours, 250 nM AD2646 or 10 μM PPMP, whole-cell patch-clamp (unpublished data)
Description: Sphingolipids preferentially interact with cholesterol in membranes, especially in detergent-resistant microdomains (DRMs or rafts). Rafts have been described in Plasmodium and are involved, at least, in the uptake of erythrocyte raft proteins and maintenance of the parasitophorous vacuole containing the parasite, inside the erythrocyte. This interaction implies : 1) van der Waals interactions between the saturated acyl chain and sphingoid moiety of sphingolipids and the rigid planar tetracyclic rings of cholesterol and 2) hydrogen bonds between the 3-β hydroxyl group of cholesterol and the fatty acyl carbonyl group resulting from the amide linkage with the sphingoid moiety. The amide-linked fatty acid function seems to have a profound stabilizing effect on cholesterol-sphingolipid interactions. It could be hypothesized that in a membrane context, methylene analogs might have a destabilizing effect on the cholesterol-sphingolipid interactions and, in consequence, modifications of membrane properties. Indeed, P. falciparum growth is characterized by a setting up of new permeabilities of the infected-erythrocyte membrane. Although the biochemical nature of these new permeabilities is still unknown, they have been characterized from an electrophysiological point of view and involve a malaria-induced anion channel. […]

[5] = tested on: P. falciparum sphingomyelin synthase activity; test: Sphingomyelin synthase activity assay in trophozoite cultures (NBD-C6-ceramide); assay type: cell-based, Plasmodium falciparum; settings: trophozoites 20-30 h, 0-500 μM drug, 10 μM NBD-C6-ceramide, 60 min, 37°C
Method: SPM synthase activity was measured as described by Haldar et al.. Briefly, assays were performed on P. falciparum cultures at the trophozoite stage (20–30 h old parasites). 400 μl of culture (1 × 10^8 parasites) were incubated for 60 min at 37°C with 10 μM NBD-C6-ceramide and 0 to 500 μM PPMP or AD2646. Cells were then lysed by freezing and thawing of the culture. Lipids were extracted by a modification of the method of Bligh and Dyer. To each sample, three volumes of a CH3OH/CHCl3 mixture (1:2, v:v) were added and the mixture vortexed for one min. Organic and aqueous phases were separated by centrifugation (12,000 × g, five min) and the organic phase was dried. Lipids were dissolved in 15 μl ethanol and analysed by thin layer chromatography on HPTLC plates (Silica gel 60 F254, Merck, Darmstadt, Germany) in CH3OH/[…]/NH4OH (75:25:4, v:v:v). For qualitative analyses, the fluorescent lipids were detected under UV and for quantitative analyses, the fluorescent lipid spots were scraped, eluted in one ml methanol and quantified at an excitation of 470 nm and an emission of 530 nm in a spectrofluorometer. The percentage of SPM synthase activity for each drug concentration was determined by comparison of the fluorescence quantified in the analog-treated culture with that in the control culture (without drug).

[6] = tested on: human MRC-5 cells; test: Cytotoxicity test upon human embryonic cells (MTT); assay type: cell-based; settings: Homo sapiens, MRC5, 120 h; MRC-5, five days, MTT; mean of three experiments
Method: (§1) A human diploid embryonic lung cell line (MRC-5, Bio-Whittaker 72211D) was used to assess the cytotoxic effects towards eukaryotic host cells. MRC-5 cells were seeded at 5,000 cells per well in 100 μl. After 24 hours, the cells were washed and two-fold dilutions of the drug were added in 200 μl standard culture medium (RPMI medium + 5% fetal calf serum) and maintained for five days under 5% CO2 atmosphere. The final DMSO concentration in the culture remained below 0.1%. Untreated cultures were included as controls. The cytotoxicity was determined using the colorimetric MTT assay according to the manufacturer's recommendations (Cell proliferation kit I, Roche Applied Science, France) and scored as a percentage of reduction in absorption at 540 nm of treated cultures versus untreated control cultures. […] The results were expressed as the mean ± the standard deviations determined from several independent experiments. The index of selectivity was defined as the ratio of the IC50 value on MRC-5 to that of P. falciparum.

[7] = Cytotoxicity test upon human embryonic cells (MTT); assay type: cell-based; settings: human, MRC-5 human diploid embryonic lung cells; MRC-5, five days, MTT; mean of three experiments
Method: as §1

[8] = tested on: chloroquine-resistant strain FcB1 of P. falciparum; test: Anti-Plasmodium activity, [3H]hypoxanthine microdilution on asynchronous cultures; assay type: cell-based, Plasmodium falciparum; settings: Plasmodium falciparum; strain FcB1, asynchronous cultures, n = 3; read-out: IC50
Method: P. falciparum strains (FcB1/Colombia, K1/Thailand, F32/Tanzania, W2/Indochina) were maintained in continuous culture on human erythrocytes in RPMI medium containing 7% (v/v) heat-inactivated human serum under an atmosphere of 3% CO2, 6% O2, 91% N2, at 37°C, as described by Trager and Jensen. Parasite synchronization was performed successively by treatment with 5% (w/v) sorbitol and by concentration in gelatin solution as previously described.
Drug susceptibility assays were performed using a modification of the semi automated microdilution technique of Desjardins et al.. Stock solutions of test compounds were prepared in DMSO. Drug solutions were serially diluted twofold with 100 μl culture medium in 96-well plates. Asynchronous parasite cultures (100 μl, 1 % parasitemia and 1 % final hematocrite) were added to each well and incubated for 24 hours at 37°C prior to the addition of 0.5 μCi of [^3H] hypoxanthine (Amersham, France, 1 to 5 Ci.mmol/ml) per well. After a further incubation of 24 hour, plates were frozen and thawed. Cell lysates were then collected onto glass-filter papers and counted in a liquid scintillation spectrometer. The growth inhibition for each drug concentration was determined by comparison of the radioactivity incorporated in the treated culture with that in the control culture (having the same final % of DMSO) maintained on the same plate. The concentration causing 50% growth inhibition (IC50) and 90% growth (IC90) were obtained from the drug concentration-response curve and the results were expressed as the means ± the standard deviations determined from several independent experiments.

SMILES: CCCCCCCCCCCCCCCC(=O)NC(CN1CCOCC1)C(O)c1ccccc1 (stereo not drawn) [PPMP, d,1-threo-1-phenyl-2-palmitoylamino-3-morpholino-1-propanol, reference compound]
- TVN formation ([1]; rings incubated 24 hours with 60 nM AD2646 or 5 μM PPMP): no TVN was observed
- ring development ([1]; rings, 24 hours, 5 μM): totally inhibited
- IC50 [2]: 0.85 µM
- reversibility of ring-stage block [3]: recovered to a normal growth after drug removal
- induced anion channel activity [4]: did not modulate significantly the induced channel activity
- inhibition of SPM synthase activity (shape of curve) [5]: biphasic inhibition curve
- IC50 [6]: 7.5 µM
- IC90 at 5 days [7]: 12.4 µM
- IC50 [8]: 9 ± 1.7 µM
